Values of other authors as cited in article PMC6504684 (Frontiers in Pharmacology, 2019).

System: α9α10 nAChRs, mutation α9-Asp121Leu
Details: cited from earlier work

## CC(=O)OCC[N+](C)(C)C [ACh, acetylcholine]
  increase of EC50: ~30 times
